Tests used:
NMDA receptors = test: NMDA-induced seizure activity and lethality in mice (in vivo test for NMDA antagonist activity); conditions: male NIH-Swiss mice, 30 min before NMDA 200 mg/kg IP
From the text: Compounds 3-(3,5-dimethyladamantan-1-ylcarbamoyl)-(R)-2-hydroxypropyl)-trimethyl ammonium chloride [Formula 1(B); R1 and R2 are CH3; n=0], and 3-benzyloxycarbonyl-(R)-2-{[(3,5-dimethyladamantan-1-ylcarbamoyl)-propionyloxy]propyl}-trimethyl ammonium bromide [Formula 4(B); R1 and R2 are CH3; n=0; R3, R4, R5, R6 are hydrogen; and R^2 is a benzyl group] were selected for in vivo testing in mice, since both are potential prodrugs for memantine and L-carnitine through in vivo enzymatic hydrolysis of either an amide or ester linkages. Since memantine has N-methyl-D-aspartate (NMDA) antagonist properties, it was assumed that the above compounds would share these properties and therefore a test was utilized that identifies NMDA antagonist activity in vivo. Briefly, this test measures seizure activity and lethality in mice produced by the administration of NMDA […] which block these parameters in a dose-dependent manner (see Leander, J. D., et al., Brain Res. 448, 115-120 (1988), N-methyl-D-aspartate acid-induced lethality in mice: selective antagonism by phencyclidine-like drugs; Parsons, C. G., et al., Neuropharmacol. 34, 1239-1258 (1995).
(§1) Memantine (30 mg/kg; SC) was used as a positive control in each experiment and there were n=8 mice/group for all conditions.

[1] = Toxicity observed in mice after subcutaneous administration in the NMDA test; format: in vivo; conditions: male NIH-Swiss mice; 120 mg/kg SC; n=8 mice/group
Procedure: as §1

## CC12CC3CC(C)(C1)CC(NC(=O)CCC(=O)O[C@H](CC(=O)OCc1ccccc1)C[N+](C)(C)C)(C3)C2.[Br-] [{3-Benzyloxycarbonyl-(R)-2-[3-(3,5-Dimethyladamantan-1-ylcarbamoyl)-propionyloxy]-propyl}-trimethylammonium bromide]
NMDA receptors; 90 mg/kg SC, observed 30 min
  time to produce clonic seizures: markedly increased
  time to produce death: markedly increased

## CC12CC3CC(C)(C1)CC(NC(=O)C[C@@H](O)C[N+](C)(C)C)(C3)C2.[Cl-] [[3-(3,5-Dimethyl-adamantan-1-ylcarbamoyl)-(R)-2-hydroxy-propyl]-trimethylammonium chloride]
NMDA receptors; 60 mg/kg SC
  activity in NMDA-induced seizure/lethality test: inactive
NMDA receptors; 120 mg/kg SC, observed 30 min
  time to lethality: slightly increased
[1]
  toxicity: tremors, lethality in n=3 mice

From patent US8049038B2, “Carnitine conjugates of adamantanamines derivatives as dual prodrugs for various uses” (priority 2006, dated 2011)
